Source: article PMC12445744, “Molecular docking to homology models of human and Trypanosoma brucei ERK8 that identified ortholog-specific inhibitors” (PLOS Neglected Tropical Diseases, 2025)
“And” between values parts separate entries of the source, which are not always exact repeats. Equal entries are not always repeated.

Molecular target: T1, TbERK8 (Trypanosoma brucei brucei, UniProt Q38B88)
T1 sequence (Q38B88 1-442): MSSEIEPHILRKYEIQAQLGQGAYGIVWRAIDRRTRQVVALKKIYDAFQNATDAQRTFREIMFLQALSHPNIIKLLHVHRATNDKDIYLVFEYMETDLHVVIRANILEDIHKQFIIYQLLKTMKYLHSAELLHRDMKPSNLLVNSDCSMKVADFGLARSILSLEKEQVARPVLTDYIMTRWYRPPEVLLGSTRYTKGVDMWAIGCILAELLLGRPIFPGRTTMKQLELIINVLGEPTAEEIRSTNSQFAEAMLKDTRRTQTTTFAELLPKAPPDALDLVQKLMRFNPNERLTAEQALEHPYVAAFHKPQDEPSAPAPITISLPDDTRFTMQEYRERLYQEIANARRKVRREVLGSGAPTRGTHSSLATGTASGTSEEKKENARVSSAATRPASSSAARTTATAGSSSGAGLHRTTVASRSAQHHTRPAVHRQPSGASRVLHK
Experiment: Luciferase-based kinase inhibition assay (ATP luminescence), GST-tagged TbERK8 with MBP substrate
Type: biochemical
Parameters: raw luminescence, TbERK8: unit of the concentration uncertain
Conditions: for raw luminescence, TbERK8: replicate wells; for raw luminescence, TbERK8 / Luminescence Raw (Kinase-Glo): listed as Sil; for Luminescence Raw (Kinase-Glo): TbERK8

IC50: 9 mM
raw luminescence, TbERK8 (10.00000 (unit uncertain) compound, sheet Kinase_glo 08142024 (2)): 40177.6 RLU (2×) and 40048.6 RLU
Luminescence Raw (Kinase-Glo) (inhibitor 0.00976562 mM, sheet Sil_Pred3, read 3): 36049.4 and 37274.6 and 36862.3
Luminescence Raw (Kinase-Glo) (inhibitor 0.0195312 mM, sheet Sil_Pred3, read 3): 31279.7 and 32797.7 and 32247.2
Luminescence Raw (Kinase-Glo) (inhibitor 0.0390625 mM, sheet Sil_Pred3, read 3): 27320.5 and 29281.3 and 28655.8
Luminescence Raw (Kinase-Glo) (inhibitor 0.078125 mM, sheet Sil_Pred3, read 3): 38799.7 and 40144.4 and 45260.9
Luminescence Raw (Kinase-Glo) (inhibitor 0.15625 mM, sheet Sil_Pred3, read 3): 29028.3 and 32258.9 and 32301.1
Luminescence Raw (Kinase-Glo) (inhibitor 0.3125 mM, sheet Sil_Pred3, read 3): 27939 and 30286.4 and 29686.6
Luminescence Raw (Kinase-Glo) (inhibitor 0.625 mM, sheet Sil_Pred3, read 3): 36091.6 and 38406.1 and 37640.1
Luminescence Raw (Kinase-Glo) (inhibitor 0.00976562, sheet Sil_Pred1, read 1): 40167.3 and 42010.2 and 38672.9
Luminescence Raw (Kinase-Glo) (inhibitor 0.00976562, sheet Sil_Pred2, read 2): 37219 and 38747.1 and 37019
Luminescence Raw (Kinase-Glo) (inhibitor 0.0195312, sheet Sil_Pred1, read 1): 34760.2 and 36412.8 and 34705.2
Luminescence Raw (Kinase-Glo) (inhibitor 0.0195312, sheet Sil_Pred2, read 2): 32386.1 and 33904.8 and 32825.7
Luminescence Raw (Kinase-Glo) (inhibitor 0.0390625, sheet Sil_Pred1, read 1): 30029.2 and 32598.7 and 32204.5
Luminescence Raw (Kinase-Glo) (inhibitor 0.0390625, sheet Sil_Pred2, read 2): 28304.4 and 29974.3 and 30192.9
Luminescence Raw (Kinase-Glo) (inhibitor 0.078125, sheet Sil_Pred1, read 1): 43786.6 and 44925.8 and 48645.9
Luminescence Raw (Kinase-Glo) (inhibitor 0.078125, sheet Sil_Pred2, read 2): 39158.7 and 41749.6 and 45619.7
Luminescence Raw (Kinase-Glo) (inhibitor 0.15625, sheet Sil_Pred1, read 1): 32447.4 and 35952.1 and 35828.3
Luminescence Raw (Kinase-Glo) (inhibitor 0.15625, sheet Sil_Pred2, read 2): 29879 and 33446.7 and 32672.2
Luminescence Raw (Kinase-Glo) (inhibitor 0.3125, sheet Sil_Pred1, read 1): 31858.4 and 33536.2 and 32552.9
Luminescence Raw (Kinase-Glo) (inhibitor 0.3125, sheet Sil_Pred2, read 2): 29706.8 and 31355.8 and 30890.7
Luminescence Raw (Kinase-Glo) (inhibitor 0.625, sheet Sil_Pred1, read 1): 41361.5 and 43495.5 and 43241.1
Luminescence Raw (Kinase-Glo) (inhibitor 0.625, sheet Sil_Pred2, read 2): 37112 and 39789 and 39512.2
SMILES: CCCc1nn(C)c2c(=O)[nH]c(-c3cc(S(=O)(=O)N4CCN(C)CC4)ccc3OCC)nc12 [Sildenafil]
raw luminescence, TbERK8 (0.00015 (unit uncertain) compound, sheet ADP_ATP_glo081724 (3)): 192.26 RLU and 196.784 RLU and 144.761 RLU
raw luminescence, TbERK8 (0.00015 (unit uncertain) compound, sheet Kinase_glo 08142024 (2)): 642.503 RLU and 676.319 RLU and 570.644 RLU
raw luminescence, TbERK8 (0.00015 (unit uncertain) compound, sheet Kinase_glo_080924_IFPS (2)): 1471.05 RLU and 1414.9 RLU and 1313.84 RLU
raw luminescence, TbERK8 (0.00061 (unit uncertain) compound, sheet ADP_ATP_glo081724 (3)): 122.142 RLU and 174.165 RLU and 104.047 RLU
raw luminescence, TbERK8 (0.00061 (unit uncertain) compound, sheet Kinase_glo 08142024 (2)): 718.589 RLU and 748.177 RLU and 712.248 RLU
raw luminescence, TbERK8 (0.00061 (unit uncertain) compound, sheet Kinase_glo_080924_IFPS (2)): 788.303 RLU and 923.056 RLU and 783.811 RLU
raw luminescence, TbERK8 (0.00244 (unit uncertain) compound, sheet ADP_ATP_glo081724 (3)): 246.545 RLU and 205.831 RLU and 226.188 RLU
raw luminescence, TbERK8 (0.00244 (unit uncertain) compound, sheet Kinase_glo 08142024 (2)): 701.681 RLU and 748.177 RLU and 629.822 RLU
raw luminescence, TbERK8 (0.00244 (unit uncertain) compound, sheet Kinase_glo_080924_IFPS (2)): 458.159 RLU and 390.783 RLU and 375.062 RLU
raw luminescence, TbERK8 (0.00977 (unit uncertain) compound, sheet ADP_ATP_glo081724 (3)): 235.236 RLU and 187.736 RLU and 135.713 RLU
raw luminescence, TbERK8 (0.00977 (unit uncertain) compound, sheet Kinase_glo 08142024 (2)): 820.036 RLU and 841.171 RLU and 775.653 RLU
raw luminescence, TbERK8 (0.00977 (unit uncertain) compound, sheet Kinase_glo_080924_IFPS (2)): 660.288 RLU and 590.666 RLU and 547.994 RLU
raw luminescence, TbERK8 (0.03906 (unit uncertain) compound, sheet ADP_ATP_glo081724 (3)): 210.355 RLU and 205.831 RLU and 187.736 RLU
raw luminescence, TbERK8 (0.03906 (unit uncertain) compound, sheet Kinase_glo 08142024 (2)): 526.26 RLU and 661.524 RLU and 672.092 RLU
raw luminescence, TbERK8 (0.03906 (unit uncertain) compound, sheet Kinase_glo_080924_IFPS (2)): 981.449 RLU and 954.498 RLU and 819.745 RLU
raw luminescence, TbERK8 (0.15625 (unit uncertain) compound, sheet ADP_ATP_glo081724 (3)): 341.544 RLU and 352.854 RLU and 287.259 RLU
raw luminescence, TbERK8 (0.15625 (unit uncertain) compound, sheet Kinase_glo 08142024 (2)): 849.625 RLU and 830.604 RLU and 743.951 RLU
raw luminescence, TbERK8 (0.15625 (unit uncertain) compound, sheet Kinase_glo_080924_IFPS (2)): 1302.61 RLU and 956.744 RLU and 1116.2 RLU
raw luminescence, TbERK8 (0.62500 (unit uncertain) compound, sheet ADP_ATP_glo081724 (3)): 653.684 RLU and 678.565 RLU and 508.924 RLU
raw luminescence, TbERK8 (0.62500 (unit uncertain) compound, sheet Kinase_glo 08142024 (2)): 1502.69 RLU and 1635.85 RLU and 1447.74 RLU
raw luminescence, TbERK8 (0.62500 (unit uncertain) compound, sheet Kinase_glo_080924_IFPS (2)): 10771.2 RLU and 11665.1 RLU and 9012.71 RLU
raw luminescence, TbERK8 (2.50000 (unit uncertain) compound, sheet ADP_ATP_glo081724 (3)): 9775.86 RLU and 9642.41 RLU and 4501.15 RLU
raw luminescence, TbERK8 (2.50000 (unit uncertain) compound, sheet Kinase_glo 08142024 (2)): 30745 RLU and 32114.6 RLU and 32366.1 RLU
raw luminescence, TbERK8 (2.50000 (unit uncertain) compound, sheet Kinase_glo_080924_IFPS (2)): 19880.5 RLU and 19849.1 RLU and 15795.3 RLU
raw luminescence, TbERK8 (10.00000 (unit uncertain) compound, sheet ADP_ATP_glo081724 (3)): 17380.3 RLU and 17721.9 RLU and 17968.4 RLU
raw luminescence, TbERK8 (10.00000 (unit uncertain) compound, sheet Kinase_glo_080924_IFPS (2), signal = ATP left): 19548.1 RLU and 21185.4 RLU and 21443.6 RLU
